The results in this text go back to US6790862B2 (priority 1999, dated 2004).

As a reminder, the IC50 is the concentration needed to halve the response being measured.

The test system of experiment [1] is different cell lines (H441, SY5Y, HL-60, 32D-ras, 32D, LLC-PK1). The experiment in a line: MTT cell proliferation assay in the different cell lines. Format: cell-based. The note with it: 96 h; 4-day exposure. As for the experimental part: (§1) Tumorigenic and non-tumorigenic cell lines were cultured as previously described in Hood K. A., West L. M., Northcote P. T., Berridge M. V., Miller J. H., Apoptosis (2001), 6, 207-219. These cell lines included HL-60 and KS62, two tumorigenic human myeloid leukemic cell lines, 32D clone 3 (32D), a non-tumorigenic murine myeloid cell line, 32D-ras, the ras-transformed derivative of 32D, H441, a human lung adenocarcinoma cell line, SH-SY5Y, a human neuroblastoma cell line, and LLC-PK1, a non-tumorigenic pig kidney cell line. IC50 values for Peloruside A in the different cell lines were determined using the tetrazolium-based MTT cell proliferation assay as previously described (Hood K. A et al.).

For a further experiment, the system named is HL-60 cells. Put plainly: MTT cell proliferation assay. It is filed as cell-based, human. The conditions noted are these: Homo sapiens, HL-60. The method, then: as §1
(Formazan colour is commonly taken as a measure of viable cells.)

The subject of experiment [2] is H441 cells. Put plainly: cellular morphology, phase-contrast microscopy. It is filed as cell-based, human. As for the experimental part:
Phase-contrast photomicrographs of H441 human lung adenocarcinoma cells: untreated control cells (A) and cells exposed for 48 h to 100 nM Peloruside A (B) or 100 nM paclitaxel (C). Note the intracellular fiber bundles in approximately 10% of the treated cells and the numerous micronuclei, each with a dark central spot of condensed DNA. Scale bar=[…].

Experiment [3] concerns H441 cells. Put plainly: cell cycle by flow cytometry (PI) and mitotic index. Format: cell-based, human. The arrangement: metaphase-arrested cells (mitotic index): dose or concentration left out as unconfirmed. The note with it: H441, 24 h. As for the experimental part: Using standard methodology, the DNA of cells was stained with propidium iodide (PI), and the proportion of cells in different phases of the cell cycle was monitored by flow cytometry. Briefly, H441 cells were treated with […] for 24 h. Adherent cells were collected by trypsinization and added to those in suspension. The cells were then fixed with cold 70% ethanol overnight and stained with PI solution consisting of 45 mg/mL PI, 10 mg/mL RNaseA, and 0.1% glucose. After a 2 h incubation at RT, samples were analysed in a FACSort flow cytometer (Becton Dickinson).
Cells were treated with […] Peloruside A or paclitaxel, stained with PI, and counted by flow cytometry. For the mitotic index, cells were treated for 24 h with different concentrations of Peloruside A or paclitaxel, and the number of cells in mitosis divided by the total number of cells (n=at least 400 cells counted in each of 3 preparations).

`CCC(/C=C(/C)C1C[C@H](OC)C[C@@H](O)C(C)(C)[C@]2(O)OC(CC(OC)C2O)C[C@H](OC)[C@@H](O)C(=O)O1)CO` (stereo partly shown) [Peloruside A] displayed an IC50 in experiment [1] of 4 to 15 nM. Further, in the experiment on HL-60 cells, inhibition was half-maximal at 7 ± 4 nM (IC50). In addition, the “treated cells with intracellular fiber bundles” value with H441 cells [2] (H441, 48 h, 100 nM) was “approximately 10%”. In addition, in the experiment with H441 cells [2] (H441, 2 days exposure, 100 nM), the micronuclei result is on record as “multiple micronuclei were observed”. Moreover, the intracellular fiber bundles result with H441 cells [2] (H441, phase-contrast microscopy) is listed as “large intracellular fiber bundles were observed”. Besides, in the experiment on H441 cells [3], the cell cycle arrest result is “partial cell cycle arrest at G2/M” and the “metaphase-arrested cells (mitotic index)” value is on record as 34±2%.
